Values joined by “and” are separate entries in the source; they are usually repeats but may differ in a detail not shown here. Equal entries are not always repeated. Inconclusive results and toxic doses are left out. Rule for the calls: active = survival T/C of 150% or more; inactive = T/C below 125% in these data.
Tested on: BDF1 mice, B16 melanoma ip, median survival T/C
Assay: NCI In Vivo Anticancer Drug Screen. Data for tumor model B16 Melanoma (intraperitoneal) in B6D2F1 (BDF1) mice
Conditions: endpoint: median survival time, schedule: Q01DX009 (ip), higher = longer survival
Method in brief: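 Transplantable tumor model; survival or tumor size measured; reported as T/C, treated over vehicle control.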

Measured: T/C

C/C=C(\C)c1cc(=O)c2c(C)cc3c(c2o1)C(=O)c1c(O)c(C2CC(C)(N(C)C)C(O)C(C)O2)cc(C2CC(N(C)C)C(O)C(C)O2)c1C3=O (stereo not drawn)
inactive: dose: 0.5 mg/kg/injection, vehicle: Klucel (hydroxypropylcellulose) (HPC) 104 % of control | dose: 31.0 micrograms/kg/injection, vehicle: saline 102 % of control | dose: 39.06 micrograms/kg/injection, vehicle: saline 123 % of control | dose: 62.0 micrograms/kg/injection, vehicle: saline 113 % of control | dose: 156.0 micrograms/kg/injection, vehicle: saline 118 % of control | dose: 250.0 micrograms/kg/injection, vehicle: saline 105 % of control | dose: 312.5 micrograms/kg/injection, vehicle: saline 122 % of control | dose: 625.0 micrograms/kg/injection, vehicle: saline 94 % of control and 100 % of control
